Assay results taken from ChEMBL document CHEMBL4308824, “Design of Small Molecule Autophagy Modulators: A Promising Druggable Strategy” (J Med Chem, 2018).
Structures can show the parent of a compound that is named as a salt. Each block holds one compound with its values, some of them ahead of it.

Columns and labels:
BT-474 = experiment: Cytotoxicity against human BT474 cells assessed as reduction in cell viability after 48 hrs by MTT assay; format: functional, cell-based; details: BT-474, 48 h
[1] = Dissociation constant, pKa of compound; format: physicochemical
MDA-MB-231 = experiment: Cytotoxicity against human MDA-MB-231 cells assessed as reduction in cell viability at 750 nM after 24 hrs by MTT assay relative to control; format: functional
mTORC2 = mTORC2 (Homo sapiens, UniProt P42345); format: protein-complex assay
mTORC1 = mTORC1 (Homo sapiens, UniProt P42345); format: protein-complex assay
U2OS = experiment: Inhibition of autophagy in human U2OS cells stably expressing tfLC3; format: functional
[2] = Cytotoxicity in human U2OS cells incubated for 24 to 48 hrs by CellTiter Glo assay; format: cell-based; details: read-out: LD50 (the source's name)
[3] = target: T1, Serine/threonine-protein kinase ULK1 (Homo sapiens, UniProt O75385)
T1 sequence (O75385 whole entry): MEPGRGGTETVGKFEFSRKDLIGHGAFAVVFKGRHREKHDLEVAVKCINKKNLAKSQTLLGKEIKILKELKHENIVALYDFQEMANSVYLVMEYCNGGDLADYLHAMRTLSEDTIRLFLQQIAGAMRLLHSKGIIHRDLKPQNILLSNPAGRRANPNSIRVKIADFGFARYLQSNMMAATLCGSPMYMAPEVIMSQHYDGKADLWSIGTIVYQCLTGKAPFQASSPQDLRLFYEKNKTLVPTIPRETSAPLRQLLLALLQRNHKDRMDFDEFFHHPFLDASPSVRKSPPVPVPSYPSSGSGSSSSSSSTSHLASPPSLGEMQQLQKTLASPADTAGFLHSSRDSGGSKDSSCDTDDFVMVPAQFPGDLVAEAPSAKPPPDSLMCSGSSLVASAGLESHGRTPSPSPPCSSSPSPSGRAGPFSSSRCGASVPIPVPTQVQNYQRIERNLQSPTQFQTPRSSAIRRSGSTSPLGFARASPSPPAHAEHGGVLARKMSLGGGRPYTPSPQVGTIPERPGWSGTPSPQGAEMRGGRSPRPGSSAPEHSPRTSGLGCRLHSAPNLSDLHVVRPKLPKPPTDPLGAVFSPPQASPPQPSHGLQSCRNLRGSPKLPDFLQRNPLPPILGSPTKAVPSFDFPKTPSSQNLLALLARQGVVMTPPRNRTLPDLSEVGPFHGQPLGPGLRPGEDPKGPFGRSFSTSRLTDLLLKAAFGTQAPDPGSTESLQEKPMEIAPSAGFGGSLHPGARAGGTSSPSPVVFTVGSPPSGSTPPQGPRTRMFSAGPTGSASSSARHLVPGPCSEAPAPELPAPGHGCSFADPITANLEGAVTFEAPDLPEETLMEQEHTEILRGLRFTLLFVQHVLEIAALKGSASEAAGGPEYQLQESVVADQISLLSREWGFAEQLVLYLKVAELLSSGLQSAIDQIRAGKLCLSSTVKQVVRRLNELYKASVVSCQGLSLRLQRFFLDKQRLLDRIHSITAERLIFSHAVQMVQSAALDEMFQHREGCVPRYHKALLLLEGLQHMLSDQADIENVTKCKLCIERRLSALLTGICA

[4] = target: T2, Serine/threonine-protein kinase ULK2 (Homo sapiens, UniProt Q8IYT8)
T2 sequence (Q8IYT8 whole entry): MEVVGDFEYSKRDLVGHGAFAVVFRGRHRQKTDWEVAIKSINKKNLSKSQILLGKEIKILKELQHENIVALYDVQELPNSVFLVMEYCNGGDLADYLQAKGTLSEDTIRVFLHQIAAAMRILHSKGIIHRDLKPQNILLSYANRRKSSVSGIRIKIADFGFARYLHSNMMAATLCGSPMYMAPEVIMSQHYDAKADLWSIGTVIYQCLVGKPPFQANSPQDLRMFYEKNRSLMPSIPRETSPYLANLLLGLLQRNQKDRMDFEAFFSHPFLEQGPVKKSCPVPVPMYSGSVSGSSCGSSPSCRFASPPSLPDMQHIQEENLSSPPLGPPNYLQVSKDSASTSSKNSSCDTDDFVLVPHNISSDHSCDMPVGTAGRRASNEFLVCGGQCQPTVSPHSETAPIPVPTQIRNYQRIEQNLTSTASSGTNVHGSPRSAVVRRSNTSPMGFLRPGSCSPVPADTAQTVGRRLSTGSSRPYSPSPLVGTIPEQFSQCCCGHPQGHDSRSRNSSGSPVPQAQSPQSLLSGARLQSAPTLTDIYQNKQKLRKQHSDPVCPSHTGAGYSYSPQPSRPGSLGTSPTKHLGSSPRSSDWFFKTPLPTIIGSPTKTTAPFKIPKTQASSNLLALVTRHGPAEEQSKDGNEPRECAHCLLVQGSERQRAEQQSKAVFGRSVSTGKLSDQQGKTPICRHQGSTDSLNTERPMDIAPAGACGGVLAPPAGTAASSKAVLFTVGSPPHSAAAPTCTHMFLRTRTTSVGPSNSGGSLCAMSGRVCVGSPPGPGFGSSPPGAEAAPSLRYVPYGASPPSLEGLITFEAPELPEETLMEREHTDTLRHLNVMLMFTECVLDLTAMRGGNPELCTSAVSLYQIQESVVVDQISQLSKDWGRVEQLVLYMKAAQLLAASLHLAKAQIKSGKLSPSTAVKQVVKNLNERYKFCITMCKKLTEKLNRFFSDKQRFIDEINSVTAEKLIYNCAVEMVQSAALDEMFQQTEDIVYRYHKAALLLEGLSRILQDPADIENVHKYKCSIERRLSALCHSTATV

[5] = target: AMP-activated protein kinase (AMPK) alpha-1/beta-1/gamma-1 (Homo sapiens, UniProt P54619+Q13131+Q9Y478); experiment: Activation of recombinant human AMPK alpha1/beta1/gamma1 (unknown origin) using SAMS peptide as substrate preincubated for 20 mins followed by substrate and gamma-[32]P-ATP addition and measured after 30 mins by liquid scintillation counting method; format: protein-complex assay
[6] = target: T2, Serine/threonine-protein kinase ULK2; experiment: Inhibition of ULK2 (unknown origin)
CNE-2 = experiment: Antiproliferative activity against human CNE2 cells after 72 hrs by MTT assay; format: functional, cell-based; details: CNE-2, 72 h
[7] = target: Phosphatidylinositol 4,5-bisphosphate 3-kinase catalytic subunit gamma isoform (Homo sapiens, UniProt P48736)
[8] = target: Phosphatidylinositol 4,5-bisphosphate 3-kinase catalytic subunit alpha isoform (Homo sapiens, UniProt P42336); experiment: Inhibition of PI3K p110alpha (unknown origin)
[9] = target: T3, Phosphatidylinositol 4,5-bisphosphate 3-kinase catalytic subunit delta isoform (Homo sapiens, UniProt O00329); experiment: Inhibition of PI3K p110delta (unknown origin)
T3 sequence (O00329 whole entry): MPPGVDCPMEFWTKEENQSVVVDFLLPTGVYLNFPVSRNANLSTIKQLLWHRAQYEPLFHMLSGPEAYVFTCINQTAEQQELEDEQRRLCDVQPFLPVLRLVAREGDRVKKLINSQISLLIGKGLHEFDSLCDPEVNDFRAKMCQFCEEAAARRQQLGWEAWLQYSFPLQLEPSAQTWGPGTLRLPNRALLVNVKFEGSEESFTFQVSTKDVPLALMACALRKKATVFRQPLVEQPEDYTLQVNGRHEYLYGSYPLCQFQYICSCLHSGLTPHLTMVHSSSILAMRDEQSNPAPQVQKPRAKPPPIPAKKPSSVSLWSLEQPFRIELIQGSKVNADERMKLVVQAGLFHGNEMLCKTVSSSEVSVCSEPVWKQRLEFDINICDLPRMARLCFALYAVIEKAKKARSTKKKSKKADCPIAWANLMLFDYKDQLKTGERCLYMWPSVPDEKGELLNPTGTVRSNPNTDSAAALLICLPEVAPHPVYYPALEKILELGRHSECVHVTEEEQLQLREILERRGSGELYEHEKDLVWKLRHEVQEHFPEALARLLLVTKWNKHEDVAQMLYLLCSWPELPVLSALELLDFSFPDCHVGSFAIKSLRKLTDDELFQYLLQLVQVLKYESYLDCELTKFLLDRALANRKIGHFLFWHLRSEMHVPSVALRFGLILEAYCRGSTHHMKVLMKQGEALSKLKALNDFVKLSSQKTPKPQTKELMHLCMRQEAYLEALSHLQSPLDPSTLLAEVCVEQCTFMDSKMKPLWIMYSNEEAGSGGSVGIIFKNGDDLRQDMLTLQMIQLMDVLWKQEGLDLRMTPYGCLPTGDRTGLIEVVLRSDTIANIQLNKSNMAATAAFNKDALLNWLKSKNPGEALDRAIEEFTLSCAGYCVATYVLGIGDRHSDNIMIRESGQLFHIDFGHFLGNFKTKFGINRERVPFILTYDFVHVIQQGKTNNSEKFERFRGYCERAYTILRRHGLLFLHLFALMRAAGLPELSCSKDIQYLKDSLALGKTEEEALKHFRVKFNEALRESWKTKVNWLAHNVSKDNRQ

[10] = target: Phosphatidylinositol 4,5-bisphosphate 3-kinase catalytic subunit beta isoform (Homo sapiens, UniProt P42338); experiment: Inhibition of PI3K p110beta (unknown origin)
Sequence of Phosphatidylinositol 4,5-bisphosphate 3-kinase catalytic subunit beta isoform (P42338 whole entry, canonical isoform): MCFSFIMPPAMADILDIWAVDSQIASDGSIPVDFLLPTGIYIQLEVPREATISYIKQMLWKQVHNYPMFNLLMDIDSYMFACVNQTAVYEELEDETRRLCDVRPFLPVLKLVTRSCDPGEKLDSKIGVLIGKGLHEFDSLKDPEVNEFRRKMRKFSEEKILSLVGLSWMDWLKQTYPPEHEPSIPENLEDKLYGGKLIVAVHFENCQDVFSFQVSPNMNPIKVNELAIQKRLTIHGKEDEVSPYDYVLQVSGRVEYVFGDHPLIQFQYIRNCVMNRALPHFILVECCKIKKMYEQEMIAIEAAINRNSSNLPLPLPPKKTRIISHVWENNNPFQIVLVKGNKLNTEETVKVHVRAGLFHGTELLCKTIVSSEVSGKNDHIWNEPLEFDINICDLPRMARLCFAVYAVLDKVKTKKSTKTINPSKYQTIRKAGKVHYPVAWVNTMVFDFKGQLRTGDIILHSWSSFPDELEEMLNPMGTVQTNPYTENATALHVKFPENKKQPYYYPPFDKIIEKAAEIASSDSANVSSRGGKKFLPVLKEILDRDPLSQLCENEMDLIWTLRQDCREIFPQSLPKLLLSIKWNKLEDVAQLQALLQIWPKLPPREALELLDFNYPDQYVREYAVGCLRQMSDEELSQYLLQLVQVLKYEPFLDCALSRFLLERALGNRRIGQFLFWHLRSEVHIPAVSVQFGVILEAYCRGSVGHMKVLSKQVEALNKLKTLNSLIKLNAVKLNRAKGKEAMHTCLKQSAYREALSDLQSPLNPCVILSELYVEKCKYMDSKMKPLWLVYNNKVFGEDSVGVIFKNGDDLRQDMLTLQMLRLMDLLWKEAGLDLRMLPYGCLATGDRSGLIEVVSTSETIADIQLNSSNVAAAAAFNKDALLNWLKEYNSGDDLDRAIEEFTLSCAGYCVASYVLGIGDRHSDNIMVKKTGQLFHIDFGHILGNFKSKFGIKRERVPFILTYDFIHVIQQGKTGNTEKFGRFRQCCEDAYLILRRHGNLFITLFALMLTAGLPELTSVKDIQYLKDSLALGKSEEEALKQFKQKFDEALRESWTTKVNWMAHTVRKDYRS

Sequence of Phosphatidylinositol 4,5-bisphosphate 3-kinase catalytic subunit gamma isoform (P48736 whole entry, canonical isoform): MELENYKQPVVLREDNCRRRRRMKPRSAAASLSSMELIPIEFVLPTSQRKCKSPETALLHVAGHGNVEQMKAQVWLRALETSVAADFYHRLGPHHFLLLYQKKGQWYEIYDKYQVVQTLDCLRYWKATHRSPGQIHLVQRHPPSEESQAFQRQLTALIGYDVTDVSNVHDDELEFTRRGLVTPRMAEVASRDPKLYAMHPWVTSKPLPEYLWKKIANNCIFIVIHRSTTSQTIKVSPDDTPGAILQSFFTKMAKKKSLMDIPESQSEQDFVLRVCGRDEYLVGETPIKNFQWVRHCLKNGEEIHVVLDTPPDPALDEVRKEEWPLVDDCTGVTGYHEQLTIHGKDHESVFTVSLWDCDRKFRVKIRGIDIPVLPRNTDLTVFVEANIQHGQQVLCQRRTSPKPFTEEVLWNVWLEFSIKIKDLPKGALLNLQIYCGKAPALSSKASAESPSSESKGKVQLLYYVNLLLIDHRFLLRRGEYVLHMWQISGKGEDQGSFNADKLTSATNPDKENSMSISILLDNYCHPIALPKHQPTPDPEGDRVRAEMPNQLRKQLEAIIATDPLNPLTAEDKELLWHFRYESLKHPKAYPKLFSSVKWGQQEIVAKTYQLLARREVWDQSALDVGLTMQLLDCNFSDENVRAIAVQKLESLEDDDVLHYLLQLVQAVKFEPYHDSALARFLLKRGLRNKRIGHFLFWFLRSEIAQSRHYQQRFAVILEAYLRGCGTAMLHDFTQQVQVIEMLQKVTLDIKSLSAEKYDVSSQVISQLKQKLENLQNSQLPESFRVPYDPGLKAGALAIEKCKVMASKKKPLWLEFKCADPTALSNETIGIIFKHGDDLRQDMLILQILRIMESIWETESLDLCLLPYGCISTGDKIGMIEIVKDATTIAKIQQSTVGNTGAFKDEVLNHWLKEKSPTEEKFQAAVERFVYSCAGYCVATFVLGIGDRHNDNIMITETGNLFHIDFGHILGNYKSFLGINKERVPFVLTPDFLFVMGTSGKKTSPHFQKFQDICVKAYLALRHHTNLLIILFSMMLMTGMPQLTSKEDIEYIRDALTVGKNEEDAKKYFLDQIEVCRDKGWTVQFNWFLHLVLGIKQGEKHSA
Sequence of Phosphatidylinositol 4,5-bisphosphate 3-kinase catalytic subunit alpha isoform (P42336 whole entry, canonical isoform): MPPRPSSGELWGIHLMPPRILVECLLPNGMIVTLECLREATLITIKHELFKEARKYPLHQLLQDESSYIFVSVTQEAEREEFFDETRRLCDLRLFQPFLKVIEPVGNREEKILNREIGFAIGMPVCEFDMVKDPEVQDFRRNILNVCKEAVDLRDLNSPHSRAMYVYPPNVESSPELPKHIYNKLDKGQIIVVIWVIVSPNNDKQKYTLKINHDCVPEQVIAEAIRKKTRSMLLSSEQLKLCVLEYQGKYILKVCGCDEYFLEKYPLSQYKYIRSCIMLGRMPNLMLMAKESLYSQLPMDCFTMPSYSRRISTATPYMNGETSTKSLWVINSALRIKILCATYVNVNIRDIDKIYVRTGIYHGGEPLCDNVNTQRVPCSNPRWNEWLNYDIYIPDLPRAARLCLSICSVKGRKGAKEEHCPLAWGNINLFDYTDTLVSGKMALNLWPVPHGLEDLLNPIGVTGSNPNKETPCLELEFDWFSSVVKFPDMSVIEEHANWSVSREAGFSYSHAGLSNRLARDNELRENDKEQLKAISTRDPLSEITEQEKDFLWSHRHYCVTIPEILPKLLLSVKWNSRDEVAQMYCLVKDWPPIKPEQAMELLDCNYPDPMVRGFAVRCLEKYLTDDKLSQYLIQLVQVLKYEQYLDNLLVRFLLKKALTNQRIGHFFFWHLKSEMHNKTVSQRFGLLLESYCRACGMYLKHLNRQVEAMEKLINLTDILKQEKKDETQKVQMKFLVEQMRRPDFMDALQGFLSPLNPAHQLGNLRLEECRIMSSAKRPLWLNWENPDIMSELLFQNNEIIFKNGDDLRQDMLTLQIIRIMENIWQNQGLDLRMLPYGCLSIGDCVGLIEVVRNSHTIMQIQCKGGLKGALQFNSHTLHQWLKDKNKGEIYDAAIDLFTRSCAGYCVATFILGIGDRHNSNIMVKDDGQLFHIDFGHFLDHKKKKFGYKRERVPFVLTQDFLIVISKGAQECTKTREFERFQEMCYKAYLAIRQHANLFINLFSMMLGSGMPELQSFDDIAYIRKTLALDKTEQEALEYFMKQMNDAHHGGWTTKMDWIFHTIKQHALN
Sequence of AMP-activated protein kinase (AMPK) alpha-1/beta-1/gamma-1 (P54619 whole entry): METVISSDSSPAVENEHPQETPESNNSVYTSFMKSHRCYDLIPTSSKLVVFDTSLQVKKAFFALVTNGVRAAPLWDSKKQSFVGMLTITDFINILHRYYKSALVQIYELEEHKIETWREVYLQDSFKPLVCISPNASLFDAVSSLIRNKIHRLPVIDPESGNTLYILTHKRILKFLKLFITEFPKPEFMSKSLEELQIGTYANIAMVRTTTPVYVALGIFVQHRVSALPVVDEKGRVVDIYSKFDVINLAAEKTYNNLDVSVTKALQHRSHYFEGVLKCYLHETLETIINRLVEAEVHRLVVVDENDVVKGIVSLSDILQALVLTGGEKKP
Sequence of AMP-activated protein kinase (AMPK) alpha-1/beta-1/gamma-1 (Q9Y478 whole entry): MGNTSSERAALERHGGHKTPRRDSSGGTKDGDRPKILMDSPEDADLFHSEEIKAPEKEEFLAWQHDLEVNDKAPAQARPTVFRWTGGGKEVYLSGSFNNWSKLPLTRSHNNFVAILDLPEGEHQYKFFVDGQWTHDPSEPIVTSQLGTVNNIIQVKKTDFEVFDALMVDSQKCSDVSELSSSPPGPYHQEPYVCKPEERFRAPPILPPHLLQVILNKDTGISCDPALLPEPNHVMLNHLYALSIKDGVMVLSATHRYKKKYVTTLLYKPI
Sequence of AMP-activated protein kinase (AMPK) alpha-1/beta-1/gamma-1 (Q13131 whole entry): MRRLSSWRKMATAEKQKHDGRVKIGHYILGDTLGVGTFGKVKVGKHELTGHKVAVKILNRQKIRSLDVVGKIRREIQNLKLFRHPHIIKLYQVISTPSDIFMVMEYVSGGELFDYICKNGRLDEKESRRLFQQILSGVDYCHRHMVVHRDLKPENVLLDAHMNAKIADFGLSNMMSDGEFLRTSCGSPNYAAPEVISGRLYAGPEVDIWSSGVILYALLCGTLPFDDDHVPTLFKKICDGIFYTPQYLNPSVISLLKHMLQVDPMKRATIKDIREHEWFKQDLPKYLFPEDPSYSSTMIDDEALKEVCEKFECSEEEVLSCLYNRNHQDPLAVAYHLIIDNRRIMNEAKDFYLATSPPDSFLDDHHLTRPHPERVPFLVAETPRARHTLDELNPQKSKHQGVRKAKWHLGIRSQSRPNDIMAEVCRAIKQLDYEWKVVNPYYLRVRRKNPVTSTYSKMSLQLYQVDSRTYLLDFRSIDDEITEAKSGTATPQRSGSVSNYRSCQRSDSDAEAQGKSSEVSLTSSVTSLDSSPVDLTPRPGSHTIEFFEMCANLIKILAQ

pKa [1]: > 7.5
SMILES: CN1CCN(Cc2cc(CNC3(c4ccccc4F)CCCC3)ccc2O)CC1
IC50 (BT-474): 23.5 to 30.1 µM

IC50 (mTORC2): 0.001 to 0.005 µM
IC50 (mTORC1): 0.001 to 0.005 µM
SMILES: O=C(/C=C/c1ccc2c(c1)OCO2)CC1(O)C(=O)Nc2ccccc21 (centres undefined)

IC50 [6]: 0.011 µM
SMILES: CNC(=O)c1ccccc1Oc1nc(Nc2cc(OC)c(OC)c(OC)c2)ncc1Br

IC50 (mTORC2): 0.005 to 0.009 µM
IC50 (mTORC1): 0.005 to 0.009 µM
SMILES: COC(=O)Nc1ccc(-c2nc(N3CCOCC3)c3cnn(C4CCN(C(=O)OC)CC4)c3n2)cc1

IC50 [7]: 0.0897 µM
IC50 [8]: 0.767 µM
IC50 [9]: 0.0028 µM
IC50 [10]: 0.699 µM
SMILES: c1cnc2ccc(Nc3nc(NC4CC4)c4nc[nH]c4n3)cc2c1 [PUQUITINIB MESYLATE DIHYDRATE]
IC50 (CNE-2): 5.2 µM

Second part, the compound before the results:

SMILES: COC(=O)Nc1nc2cc(C(=O)c3ccc(F)cc3)ccc2[nH]1 [FLUBENDAZOLE]
Activity (MDA-MB-231): 50%

SMILES: CCN(CC)CCCC(C)Nc1c2ccc(Cl)cc2nc2ccc(OC)cc12 (centres undefined) [QUINACRINE]
EC (U2OS): 0.2 µM
CC50 [2]: 2.5 µM

SMILES: CN1CCc2cc(Nc3ncc(C4CC4)c(NCCCNC(=O)C4CCC4)n3)ccc2C1
IC50 [3]: 0.0029 µM
IC50 [4]: 0.0011 µM

SMILES: CC1(CN2C(=O)S/C(=C\c3ccc(NS(=O)(=O)c4ccc([N+](=O)[O-])c(C(F)(F)F)c4)cc3)C2=O)CCCCC1
EC50 [5]: 0.3 µM

SMILES: CCN(CC)CCCC(C)Nc1ccnc2cc(Cl)ccc12 (centres undefined) [CHLOROQUINE]
IC50 (BT-474): > 1000 µM
